How the values were obtained:
[1] = test system: primed lymph node cells (PLNC); test: T cell proliferation assay, PLNC from peptide-immunised rats; type: cell-based, Lewis rats; conditions: for CPM PLNC: in vitro peptide 20 µg/ml
Method: Immunisations with synthetic peptides and primed lymph node populations: Rats were immunised with 50 µg of synthetic peptide in PBS/DDA in each hind footpad (i.e. 50 µg/footpad, 100 µg/rat). Ten days later, draining popliteal lymph nodes were removed, disaggregated, washed three times and used as a source of primed lymph node cells (PLNC). In some experiments, PLNC were derived as pooled inguinal and popliteal lymph nodes from AA rats 35-42 days post Mt immunisation.
(§1) T cell proliferation assays: PLNC were cultured in triplicate in 200 µl flat bottom microtitre wells (Costar) at 2 x 10^5 cells per well with or without antigen. In initial experiments PLNC were tested for responsiveness to individual peptides at concentrations of 5 and 20 µg/ml, and Mt, hsp65 and PPD over a range of concentrations. Concanavalin A (2 µg/ml) was used as a positive control for T cell proliferation. Cultures were incubated for 96 h at 37°C in a humidified atmosphere of 5% CO2. Cultures were pulsed for the final 16 h with [^3H] TdR (Amersham, U.K., 1 uCi/well) and TdR uptake measured using a liquid scintillation β counter. Assays using T cell lines were performed as above using 2 x 10^4 line cells per well with irradiated (30 Gy) syngeneic accessory cells (either 3 x 10^5 splenocytes/well or 10^6 thymocytes/well). Results are expressed as mean counts per minute (cpm) of triplicate cultures. In experiments where responses to Ag were low, responses were considered significant if the stimulation index (S.I. = […]) was greater than two and Student's t tests gave p < 0.01.
To determine whether immunisation of rats with synthetic peptides was effective at priming for T cell reactivity to hsp65 epitopes, in vitro proliferative responses following immunisation with 100 µg of peptide each containing individual T cell epitopes were examined. PLNC isolated ten days after immunisation were tested for response to the immunising peptide, overlapping peptides and to hsp65 (Table II). PLNC responses were observed after immunisation with seven of the nine peptides. Responses were not seen after immunisation with peptides 386-400 and 511-525.
(§2) T cell responses by immunisation with hsp65 peptides. Rats were immunised with synthetic peptides containing individual hsp65 epitopes (100 µg peptide/DDA per rat). Ten days later PLNC were isolated and tested for responses to overlapping peptides (20 µg/ml). Peptide-specific T cell lines were generated by bulk in vitro stimulation of PLNC with immunising peptide. Lines were tested for responses to overlapping peptides (10 µg/ml). […] Results are expressed as mean cpm of triplicate cultures. All SEM were less than 20%.

[2] = test system: Peptide-specific T cell lines; test: T cell proliferation assay, peptide-specific T cell lines from peptide-immunised rats; type: cell-based, Lewis rats; conditions: for CPM T Cell Line: in vitro peptide 10 µg/ml
Method: as §1
T cell lines: T cell lines with specificity for mycobacterial hsp65 or peptides were generated by bulk stimulation of either hsp65-PLNC or Mt-PLNC. PLNC were cultured at 5 x 10^6/ml in culture medium supplemented with 2% normal rat serum (NRS) in the presence of 10 µg/ml Ag. After three days viable cells were harvested using a ficoll-isopaque gradient and cultured for a further four days in culture medium + 5% FCS and 5% TCGF (Con A-activated rat spleen supernatant). Seven days after initial stimulation lines were restimulated with irradiated spleen accessory cells and 10 µg/ml Ag in culture medium + NRS. Lines were maintained ir. this seven day restimulation cycle. Short term epitope-specific T cell lines were also generated from rats immunised with synthetic peptides. Peptide-PLNC were cultured as above in the presence of 10 µg/ml peptide.
Bulk stimulation generated T cell lines to eight of the nine peptides tested. These eight lines were tested for specificity after four in vitro restimulations (Table II). All responded to the immunising peptide and, to some extent, to hsp65.
as §2

[3] = target: RT1.B^1 MHC class II molecule (rat (Lewis)); test: cell-based or functional assay
hsp65-PLNC = test: T cell proliferation assay, hsp65-PLNC; type: cell-based, Lewis rats; conditions: PLNC from hsp65-immunised rats; peptides 5 and 20 µg/ml
Method: Immunisations and primed lymph node populations: Rats were immunised with either Mt or hsp65. Mt was suspended at 5 mg/ml in IFA or DDA and 100 µl injected in each hind footpad (i.e. 500 µg/footpad, 1 mg/rat). Hsp65 (1 mg/ml in PBS) was mixed 1:1 with DDA and 100 µl injected (i.e. 50 µg/footpad, 100 µg/rat). Ten to 21 days later, draining popliteal lymph nodes were removed, disaggregated, washed three times and used as a source of primed lymph node cells (PLNC). In control experiments splenocytes and lymph nodes from unimmunised rats and PLNC from rats immunised with IFA or DDA/PBS alone were used.
as §1
Hsp65-PLNC were analysed for responsiveness to a panel of peptides covering the entire sequence of hsp65 (Fig. 3a). […] In terms of magnitude of response, three regions of the molecule (residues 176-190, 211-230 and 221-240) appeared to contain the "dominant" T cell epitopes, while regions 86-100. 251-270, 396-410 and 506-525 contained "subdominant" or minor epitopes.

[4] = test system: hsp65-specific T cell line; test: T cell proliferation assay, hsp65-specific T cell line; type: cell-based, Lewis rats; conditions: short term lines from ten day hsp65-PLNC, seven days after first restimulation
Method: as §1
T cell lines: T cell lines with specificity for mycobacterial hsp65 or peptides were generated by bulk stimulation of either hsp65-PLNC or Mt-PLNC. PLNC were cultured at 5 x 10^6/ml in culture medium supplemented with 2% normal rat serum (NRS) in the presence of 10 µg/ml Ag. […]

[5] = PLNC 10 days after immunisation with peptide 86-100 (100 µg/DDA), mean of triplicates
[6] = T cell line from 86-100-immunised PLNC
[7] = PLNC 10 days after immunisation with peptide 176-190 (100 µg/DDA)
[8] = T cell line from 176-190-immunised PLNC
[9] = PLNC 10 days after immunisation with peptide 211-225 (100 µg/DDA)
[10] = T cell line from 211-225-immunised PLNC
[11] = PLNC 10 days after immunisation with peptide 226-240 (100 µg/DDA)
[12] = T cell line from 226-240-immunised PLNC
[13] = PLNC 10 days after immunisation with peptide 256-270 (100 µg/DDA)
[14] = T cell line from 256-270-immunised PLNC
[15] = PLNC 10 days after immunisation with peptide 396-410 (100 µg/DDA)
[16] = T cell line from 396-410-immunised PLNC
[17] = PLNC 10 days after immunisation with peptide 446-460 (100 µg/DDA)
[18] = T cell line from 446-460-immunised PLNC
[19] = PLNC 10 days after immunisation with peptide 511-525 (100 µg/DDA)
[20] = T cell line from 511-525-immunised PLNC

## 81-95: synthetic 15mer, residues 81-95 of mycobacterial hsp65 (DDVAGDGTTTATVLA; UniProt P9WPE7 81-95, looked up, fragment)
[1]; [5]
  CPM PLNC: 15296 cpm
[2]
  response of T cell line generated following immunisation with the 86-100 peptide: responded
[2]; [6]
  CPM T Cell Line: 15785 cpm

## 91-105: synthetic 15mer, residues 91-105 of mycobacterial hsp65
[1]; [5]
  CPM PLNC: 1999 cpm
[2]
  response of T cell line generated following immunisation with the 86-100 peptide: responded
[2]; [6]
  CPM T Cell Line: 18444 cpm

## 171-185: synthetic 15mer, residues 171-185 of mycobacterial hsp65
[1]; [7]
  CPM PLNC: 3082 cpm
[2]; [8]
  CPM T Cell Line: 1640 cpm

## 181-195: synthetic 15mer, residues 181-195 of mycobacterial hsp65
[1]; [7]
  CPM PLNC: 1916 cpm
[2]; [8]
  CPM T Cell Line: 1653 cpm

## 206-220: synthetic 15mer, residues 206-220 of mycobacterial hsp65
[1]; [9]
  CPM PLNC: 645 cpm
[2]; [10]
  CPM T Cell Line: 988 cpm

## 216-230: synthetic 15mer, residues 216-230 of mycobacterial hsp65
[1]; [9]
  CPM PLNC: 11117 cpm
[2]; [10]
  CPM T Cell Line: 102341 cpm

## 221-235: synthetic 15mer, residues 221-235 of mycobacterial hsp65
[1]; [11]
  CPM PLNC: 7381 cpm
[2]; [12]
  CPM T Cell Line: 100306 cpm

## 231-245: synthetic 15mer, residues 231-245 of mycobacterial hsp65
[1]; [11]
  CPM PLNC: 1655 cpm
[2]; [12]
  CPM T Cell Line: 862 cpm

## 251-265: synthetic 15mer, residues 251-265 of mycobacterial hsp65
[1]; [13]
  CPM PLNC: 6391 cpm
[2]; [14]
  CPM T Cell Line: 66063 cpm
[2]; irradiated syngeneic spleen APC
  response of the line generated against M.256-270 (line P.m52): responded

## 261-275: synthetic 15mer, residues 261-275 of mycobacterial hsp65
[1]; [13]
  CPM PLNC: 2553 cpm
[2]; [14]
  CPM T Cell Line: 646 cpm

## 391-405: synthetic 15mer, residues 391-405 of mycobacterial hsp65
[1]; [15]
  CPM PLNC: 2280 cpm
[2]; [16]
  CPM T Cell Line: 39335 cpm

## 401-415: synthetic 15mer, residues 401-415 of mycobacterial hsp65 (AKAAVEEGIVAGGGV; UniProt P9WPE7 401-415, looked up, fragment)
[1]; [15]
  CPM PLNC: 3211 cpm
[2]; [16]
  CPM T Cell Line: 2011 cpm

## 441-455: synthetic 15mer, residues 441-455 of mycobacterial hsp65
[1]; [17]
  CPM PLNC: 4715 cpm
[2]; [18]
  CPM T Cell Line: 17805 cpm

## 451-465: synthetic 15mer, residues 451-465 of mycobacterial hsp65
[1]; [17]
  CPM PLNC: 2130 cpm
[2]; [18]
  CPM T Cell Line: 1283 cpm

## 506-520: synthetic 15mer, residues 506-520 of mycobacterial hsp65
[1]; [19]
  CPM PLNC: 2754 cpm
[2]; [20]
  CPM T Cell Line: 61293 cpm

## 516-530: synthetic 15mer, residues 516-530 of mycobacterial hsp65
[1]; [19]
  CPM PLNC: 2821 cpm
[2]; [20]
  CPM T Cell Line: 1231 cpm

## mycobacterial hsp65 peptide 86-100
[3]
  reduction of peptide (1 µg/ml) induced T cell line proliferation by anti-RT1.B mAb 0X6 (10 µg/ml): > 70%

## mycobacterial hsp65 peptide 176-190
[3]
  reduction of peptide (1 µg/ml) induced T cell line proliferation by anti-RT1.B mAb 0X6 (10 µg/ml): > 70%

## mycobacterial hsp65 peptide 211-225
[3]
  reduction of peptide (1 µg/ml) induced T cell line proliferation by anti-RT1.B mAb 0X6 (10 µg/ml): > 70%

## mycobacterial hsp65 peptide 226-240
[3]
  reduction of peptide (1 µg/ml) induced T cell line proliferation by anti-RT1.B mAb 0X6 (10 µg/ml): > 70%

## mycobacterial hsp65 peptide 256-270
[3]
  reduction of peptide (1 µg/ml) induced T cell line proliferation by anti-RT1.B mAb 0X6 (10 µg/ml): > 70%

## mycobacterial hsp65 peptide 396-410
[3]
  reduction of peptide (1 µg/ml) induced T cell line proliferation by anti-RT1.B mAb 0X6 (10 µg/ml): > 70%

## mycobacterial hsp65 peptide 446-460
[3]
  reduction of peptide (1 µg/ml) induced T cell line proliferation by anti-RT1.B mAb 0X6 (10 µg/ml): > 70%

## mycobacterial hsp65 peptide 511-525
[3]
  reduction of peptide (1 µg/ml) induced T cell line proliferation by anti-RT1.B mAb 0X6 (10 µg/ml): > 70%

## peptide 180-188: synthetic 9mer, minimal AA-associated epitope 180-188 of mycobacterial hsp65 (TFGLQLELT; UniProt P9WPE7 180-188, looked up, fragment) [reference compound]
[1]; [7]
  CPM PLNC: 7859 cpm
hsp65-PLNC
  hsp65-PLNC proliferative response to peptide: induce responses, but at a lower level
[2]; [8]
  CPM T Cell Line: 23275 cpm

## peptide 386-400: synthetic 15mer, residues 386-400 of mycobacterial hsp65
[4]
  hsp65-specific T cell line response to peptide: did stimulate
[1]; 100 µg peptide, PLNC isolated ten days after immunisation
  PLNC responses after immunisation with the peptide: not seen
hsp65-PLNC
  hsp65-PLNC proliferative response to peptide: failed to stimulate
